The source of these data is PubChem BioAssay (NCI).

Where “and” joins values, the source holds several entries; their conditions need not be identical. Equal entries are not always repeated.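 Assay format: 96-well plates, 48-hour exposure. GI50: concentration for 50% inhibition of growth. TGI: total growth inhibition.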

Among the test systems are MALME-3M melanoma; OVCAR-4 ovarian; A498 renal; NCI-H460 lung; PC-3 prostate; DU-145 prostate; SR leukemia; SF-268 CNS; SF-295 CNS; HCC-2998 colon.
Common to all, as to experiment: DTP human tumour cell line panel, 48 h

In general, GI50 refers to the concentration at which growth is held to half of that of the control. The term TGI denotes the concentration at which net growth stops. A lower TGI goes with greater sensitivity of the cells. Turning to `C1CC[N-]CC1.CC(=N\O)/C(C)=N/O.CC(=N\O)/C(C)=N/O.[CH2-]CCN1CCOCC1.[Co+2]`, the GI50 with MALME-3M melanoma, in the experiment on OVCAR-4 ovarian, in the experiment with A498 renal, in the experiment on NCI-H460 lung, with PC-3 prostate and in the experiment on DU-145 prostate was over 100 µM throughout. The GI50 in the experiment with SR leukemia is 6.1 µM; with SF-268 CNS it was over 100 µM; in the experiment on SF-295 CNS it was over 100 µM. The total growth inhibition concentration (TGI) in the experiment with MALME-3M melanoma, in the experiment with OVCAR-4 ovarian, in the experiment with A498 renal, in the experiment on NCI-H460 lung, in the experiment with PC-3 prostate and with DU-145 prostate was over 100 µM in each case. For the same molecule, the TGI in the experiment with SR leukemia, in the experiment on SF-268 CNS and in the experiment with SF-295 CNS was over 100 µM throughout.
For `O=S(=O)(O)ONC1=NCCN1`, the GI50 in the experiment with HCC-2998 colon, with MALME-3M melanoma, in the experiment with OVCAR-4 ovarian, in the experiment with NCI-H460 lung, in the experiment on PC-3 prostate and in the experiment with DU-145 prostate was over 100 µM each time. Also, the GI50 in the experiment with SR leukemia, in the experiment on SF-268 CNS and in the experiment on SF-295 CNS was over 100 µM each time. Further, the TGI with HCC-2998 colon, with MALME-3M melanoma, in the experiment with OVCAR-4 ovarian, with NCI-H460 lung, in the experiment on PC-3 prostate and with DU-145 prostate was over 100 µM in each case. Also, the TGI in the experiment on SR leukemia, in the experiment with SF-268 CNS and with SF-295 CNS was over 100 µM throughout.
Turning to `Cc1nnc(-c2ccc(-c3nc4ccccc4o3)cc2)o1`, the GI50 in the experiment on HCC-2998 colon was 78.8 µM; in the experiment with NCI-H460 lung, 25.9 µM; in the experiment with PC-3 prostate, 34.7 µM; in the experiment on DU-145 prostate, 42.2 µM; in the experiment with SR leukemia, 25.8 µM; in the experiment with SF-268 CNS it was 28.6 µM. Besides, the GI50 with SF-295 CNS is 40.1 µM. For the same molecule, the TGI in the experiment with HCC-2998 colon was over 100 µM; with NCI-H460 lung it was over 100 µM; in the experiment with PC-3 prostate, over 100 µM; with DU-145 prostate, over 100 µM; in the experiment with SR leukemia, 68 µM; in the experiment with SF-268 CNS it was 92.2 µM. The molecule further had a TGI with SF-295 CNS of over 100 µM.
With `O=C(CC(=O)c1ccccc1)c1ccccc1`, the GI50 with MALME-3M melanoma was 23.2 µM; in the experiment on OVCAR-4 ovarian, 27.9 µM; with NCI-H460 lung it was 7.94 µM; with PC-3 prostate it was 25.9 µM; in the experiment on DU-145 prostate, 11.9 µM; in the experiment with SR leukemia it was 11.7 µM. Also, the GI50 was 10.9 µM in the experiment on SF-268 CNS and 17.3 µM with SF-295 CNS. The TGI in the experiment on MALME-3M melanoma is 64.1 µM; in the experiment on OVCAR-4 ovarian, over 100 µM; in the experiment with NCI-H460 lung it was 40 µM; in the experiment on PC-3 prostate, over 100 µM; in the experiment with DU-145 prostate it was 65.3 µM; in the experiment on SR leukemia, over 100 µM. In addition, the TGI turned out to be 57.7 µM with SF-268 CNS and 99.7 µM in the experiment on SF-295 CNS.
Take `C=CCCC(=O)N1C=CC(=O)[C@H](O)[C@@H]1/C=C/c1ccccc1`: the GI50 is 11.6 µM with HCC-2998 colon; 9.61 µM in the experiment on MALME-3M melanoma; 5.67 µM in the experiment with OVCAR-4 ovarian; over 32.5 µM with A498 renal; 6.65 µM in the experiment on NCI-H460 lung; 10.4 µM with DU-145 prostate. For the same molecule, the figures for the GI50 in the experiment on SR leukemia, with SF-268 CNS and in the experiment on SF-295 CNS were 4.28 µM, 7.03 µM and 10.7 µM, respectively. In addition, the TGI in the experiment on HCC-2998 colon, with MALME-3M melanoma, with OVCAR-4 ovarian, with A498 renal, in the experiment on NCI-H460 lung and with DU-145 prostate was over 32.5 µM in each case. Further, the TGI in the experiment on SR leukemia, in the experiment with SF-268 CNS and in the experiment with SF-295 CNS was over 32.5 µM in each case.
On to `COc1cc([C@@H]2c3cc4c(cc3C[C@H]3COC(=O)[C@@H]32)OCO4)cc2c1OCO2`, for which the TGI with HCC-2998 colon was under 0.01 µM; with MALME-3M melanoma, over 100 µM; in the experiment with OVCAR-4 ovarian, over 100 µM; in the experiment with NCI-H460 lung it was 0.33 µM; with DU-145 prostate, over 100 µM; in the experiment with SR leukemia, under 0.01 µM. For the same molecule, the TGI was over 100 µM in the experiment with SF-268 CNS and under 0.01 µM in the experiment with SF-295 CNS.
As for `O=C(c1ccccc1)C1C(C(=O)c2ccccc2)C(c2ccccc2)N(c2ccccc2)C1c1ccccc1` (stereo unspecified), the total growth inhibition concentration (TGI) in the experiment on HCC-2998 colon, in the experiment with MALME-3M melanoma, with NCI-H460 lung, with PC-3 prostate, in the experiment on DU-145 prostate and with SR leukemia was over 100 µM throughout. Also, the TGI in the experiment on SF-268 CNS and in the experiment with SF-295 CNS was over 100 µM each time.
On to `CN(C)CCNc1nc2ccccc2c2c(=O)c3ccccc3sc12`, for which the GI50 is 1.74 µM in the experiment on HCC-2998 colon; 1.86 µM in the experiment on MALME-3M melanoma; 2.85 µM in the experiment on OVCAR-4 ovarian; 1.62 µM in the experiment on NCI-H460 lung; 1.84 µM in the experiment on PC-3 prostate; 2.31 µM in the experiment with DU-145 prostate. Besides, the GI50 is 1.66 µM with SR leukemia, 2.1 µM in the experiment with SF-268 CNS and 1.76 µM in the experiment on SF-295 CNS. Moreover, the TGI with HCC-2998 colon stood at 3.46 µM; in the experiment on MALME-3M melanoma, 4.05 µM; with OVCAR-4 ovarian, 11.1 µM; in the experiment with NCI-H460 lung, 3.7 µM; in the experiment with PC-3 prostate, 4.13 µM; in the experiment on DU-145 prostate, 6.83 µM. In addition, the TGI in the experiment with SR leukemia amounted to 4.69 µM; in the experiment with SF-268 CNS, 8.82 µM; with SF-295 CNS it was 4.03 µM.
As for `O=C(Nc1cccc(C(F)(F)F)c1)c1cc(Br)cc(Br)c1O`, the TGI with HCC-2998 colon was over 10 µM; in the experiment on OVCAR-4 ovarian, over 10 µM; in the experiment with NCI-H460 lung, over 10 µM; in the experiment on PC-3 prostate it was 7.28 µM; in the experiment on DU-145 prostate, over 10 µM; with SR leukemia, over 10 µM. The TGI with SF-268 CNS is over 10 µM; in the experiment with SF-295 CNS it was 7.19 µM.
`COc1cc2c(cc1OC)-c1ncc3cc4c(cc3c1C2)OCO4`: the GI50 in the experiment on OVCAR-4 ovarian is 57.3 µM; in the experiment with NCI-H460 lung, 13 µM; in the experiment on PC-3 prostate, over 100 µM; with DU-145 prostate, 25.3 µM; with SR leukemia it was 2.7 µM; with SF-295 CNS it was 46.2 µM. Besides, the concentration for total growth inhibition (TGI) in the experiment with OVCAR-4 ovarian was over 100 µM; with NCI-H460 lung it was 30.5 µM; in the experiment with PC-3 prostate, over 100 µM; in the experiment on DU-145 prostate, 53.6 µM; with SR leukemia it was 15.3 µM; in the experiment with SF-295 CNS, over 100 µM.
Consider `Cc1cc(O)cc2c1c(=O)c1ccccc1n2C`, for which the TGI in the experiment with OVCAR-4 ovarian, with A498 renal, with NCI-H460 lung, with PC-3 prostate, with DU-145 prostate and in the experiment on SR leukemia was over 100 µM in each case. In addition, the TGI is 84.4 µM with SF-268 CNS and over 100 µM with SF-295 CNS.
Turning to `COc1c(N2CCN(Cn3c(O)c(N=NC(=O)c4ccncc4)c4cc(F)ccc43)C(C)C2)c(F)cc2c(=O)c(C(=O)O)cn(C3CC3)c12` (stereo unspecified), the GI50 is over 50 µM with OVCAR-4 ovarian; 13.3 µM with A498 renal; 12.4 µM in the experiment with NCI-H460 lung; over 50 µM with PC-3 prostate; 10 µM in the experiment on DU-145 prostate; 16.3 µM in the experiment with SR leukemia. The GI50 with SF-268 CNS was 10.6 µM; in the experiment with SF-295 CNS it was 23.9 µM. Further, the TGI with OVCAR-4 ovarian is over 50 µM; in the experiment on A498 renal it was over 50 µM; in the experiment with NCI-H460 lung, over 50 µM; with PC-3 prostate, over 50 µM; in the experiment on DU-145 prostate, 32.8 µM; in the experiment with SR leukemia, over 50 µM. Besides, the concentration for total growth inhibition (TGI) with SF-268 CNS is 38.2 µM; in the experiment on SF-295 CNS, over 50 µM.
For `Cc1cc(O)c(C(c2ccncc2)c2c(O)cc(C)[nH]c2=O)c(=O)[nH]1`, the TGI in the experiment with MALME-3M melanoma, in the experiment with OVCAR-4 ovarian, in the experiment on NCI-H460 lung, in the experiment on PC-3 prostate, in the experiment on DU-145 prostate and in the experiment on SR leukemia was over 100 µM throughout. The TGI in the experiment on SF-268 CNS and in the experiment on SF-295 CNS was over 100 µM throughout.
Take `COc1cc(C2c3cc4c(cc3[C@@H](Nc3ccc(N)cc3)C3COC(=O)[C@H]23)OCO4)cc(OC)c1O` (stereo partly specified): the TGI in the experiment on HCC-2998 colon came out at 9.07 µM; with MALME-3M melanoma, 19.7 µM; in the experiment on OVCAR-4 ovarian it was 41.6 µM; with A498 renal, 6.39 µM; with NCI-H460 lung, 2.36 µM; in the experiment on PC-3 prostate, 16.5 µM. The TGI was 0.682 µM and 6.81 µM in the experiment with SR leukemia; 19.3 µM with SF-268 CNS; 4.76 µM in the experiment on SF-295 CNS. Further, the GI50 in the experiment on MALME-3M melanoma is 0.849 µM; in the experiment on A498 renal, 0.781 µM; with NCI-H460 lung, 0.139 µM; with SR leukemia it was 0.151 µM; in the experiment on SF-268 CNS it was 0.89 µM; in the experiment on SF-295 CNS, 0.502 µM.
As to `CC1=C(C(=O)Nc2ccccc2)C(c2ccc(C(C)C)cc2)C(C(=O)Nc2ccccc2)=C(C)N1`, the TGI with HCC-2998 colon was 20.9 µM; in the experiment with MALME-3M melanoma, 30.2 µM; in the experiment on OVCAR-4 ovarian, over 100 µM; in the experiment with A498 renal, over 72.3 µM; in the experiment on NCI-H460 lung it was 55.4 µM; with SR leukemia, 55.5 µM. Moreover, the TGI with SF-268 CNS and in the experiment on SF-295 CNS was over 100 µM throughout.
`COc1ccc(C(=O)O/N=C2/CCC/C2=C\c2ccccc2)cc1`: the TGI in the experiment on HCC-2998 colon, in the experiment with MALME-3M melanoma, with OVCAR-4 ovarian, in the experiment with A498 renal, in the experiment on NCI-H460 lung and in the experiment with SR leukemia was over 100 µM throughout. In addition, the TGI in the experiment with SF-268 CNS and in the experiment with SF-295 CNS was over 100 µM each time.
